The source of these data is patent US9988380B2, “Quorum sensing inhibitors” (priority 2013, dated 2018).

The test system of assay [1] is LasR-controlled GFP expression in P. aeruginosa PAO1 lasB-gfp(ASV) strain. Description: P. aeruginosa QS inhibition assay with lasB-gfp(ASV) reporter strain. In kind it is cell-based, Pseudomonas aeruginosa. On the procedure:
P. aeruginosa QS inhibition assays. Test compounds were dissolved in 100% DMSO and mixed with ABTGC media, after which they were added to the first column of wells of a 96-well microtitre plate (Nunc) to give a final concentration of 100 μM in a final volume of 200 μl. 100 μL of ABTGC media was then added to the remaining wells in the plate and serial two-fold dilutions of the inhibitors were done by adding 100 μL of the preceding inhibitor-containing well to the subsequent one. The final column was left without inhibitor as a control. Next, an overnight culture of P. aeruginosa lasB-gfp(ASV) strain, grown in LB medium at 37° C. with shaking, was diluted to an optical density (OD) at 600 nm of 0.2, and 100 μl of bacterial suspension was added to each well of the microtitre plate. […] The microtitre plate was incubated at 37° C. in a Tecan Infinite 200 Pro plate reader (Tecan Group Ltd., Männedorf, Switzerland). GFP fluorescence (excitation at 485 nm, emission at 535 nm) and cell density (OD600) measurements were collected at 15 min intervals for at least 14 h. The P. aeruginosa Rhl and Pqs inhibition assays were performed in a similar manner to the LasR inhibition assay.
Inhibition Assay with the P. aeruginosa lasB-gfp(ASV) strain. In the preliminary screen, the 22 selected QSI candidates were screened for their ability to inhibit QS-controlled green fluorescent protein (GFP) expression in the P. aeruginosa lasB-gfp(ASV) strain. Elastase (encoded by the lasB gene) is a virulence factor that is controlled by LasR and therefore a good indicator for LasR activity. […] For ease of identification, each compound was designated a short compound identification code based on its well position in the shipment in place of its standard IUPAC name.
The dose-response curves of these 5 QSI candidates when incubated with the P. aeruginosa PAO1 lasB-gfp(ASV) strain are shown in FIG. 3. GFP expression, which was measured in relative fluorescence units, was normalized by dividing the GFP value by the corresponding OD600 value measured at that time-point. ‘Control’ refers to the PAO1 strain grown without the presence of QSI, and as expected, it had the highest GFP per OD values. For these five compounds, dose-dependent inhibition of lasB-gfp expression was observed, i.e. the higher the concentration of QSI that was present, the greater the inhibition of gfp expression.
IC50 Value Comparisons of the Five QSI Candidates. The slope of the curve for each QSI was calculated based on its respective dose-response curves (from FIG. 3) and plotted against the log inhibitor concentration. The slope is indicative of the biosynthesis rate of GFP due to AHL induction. The half maximal inhibitory concentrations (IC50) of the five QSI candidates were calculated using the Graphpad Prism 6 software package (GraphPad Software Inc., CA, USA).

Another assay concerns the target T1, LasR (Pseudomonas aeruginosa, UniProt P25084).
T1 construct: expressed in transfected cells; host or cells: E. coli lasB-gfp(ASV) reporter strain
Description: AHL competition assay between QSI and OdDHL in heterologous E. coli lasB-gfp(ASV) strain. The assay is classed as cell-based, P. aeruginosa. On the procedure:
E. coli Competition Assay between QSI compounds and OdDHL. The E. coli lasB-gfp(ASV) reporter strain was used for the competition assay, which was performed in a similar manner to the P. aeruginosa LasR inhibition assay. OdDHL and the QSI to be studied were added to the wells of a microtitre plate containing ABTGC media. Wells without OdDHL and/or QSI were included as controls. An overnight culture of E. coli lasB-gfp(ASV) strain, grown in LB medium at 37° C. with shaking, was diluted to an OD600 of 0.2, and 100 μl of bacterial suspension was added to each well of the microtitre plate. […] GFP and OD600 readings were obtained as described above for the P. aeruginosa LasR inhibition assay.
AHL Competition Assay Using the Heterologous E. coli lasB-gfp (ASV) strain. The five QSI candidates were tested for their specificity in inhibiting the LasR receptor by incubating these QSIs with the E. coli lasB-gfp (ASV) reporter strain. LasR is under the control of the Lac promoter and is constitutively expressed, and only LasR can activate gfp expression in this system.

Assay [2] relates to P. aeruginosa PAO1 biofilms. Description: Glass slide biofilm assay for observation of eDNA release. The assay is classed as cell-based. The settings on record: ABTG medium containing 25 μM G1, 24 h, PI staining. The method, then:
Glass Slide Biofilm Assay for Observation of eDNA Release. The glass slide biofilm assay was performed (Liu et al. 2010 Synergistic activities of an efflux pump inhibitor and iron chelators against Pseudomonas aeruginosa growth and biofilm formation. Antimicrob Agents Chemother 54:3960-3963). Briefly, gfp-tagged P. aeruginosa PAO1 biofilms were cultivated in 50 ml BD falcon tubes containing 15 ml ABTG medium. A sterile 24 mm×60 mm glass cover slide was inserted into each falcon tube for supporting biofilm growth. G1 (10 μm) was added into the biofilm medium to examine its impact on P. aeruginosa PAO1 biofilm formation. DMSO was added alone to the medium as control. Biofilms were incubated at 37° C. without shaking. 2 μM propidium iodide (Sigma-Aldrich) was added to biofilm cultures to stain extracellular DNA for 5 min after 24-hour growth. After that, biofilm attached glass slides were observed by confocal laser scanning microscopy (CLSM).

Assay [3] concerns elastase production by P. aeruginosa PAO1. Description: Elastase assay of culture supernatants (EnzChek Elastase Assay Kit). Conditions: 50 and 100 μM, 2 h cultivation. The assay is classed as cell-based. On the procedure:
Elastase Assay. P. aeruginosa PAO1 wild-type and an elastase negative lasI rhlI mutant were cultivated in LB medium overnight at 37° C. with shaking. Overnight cultures were 1:100 diluted to 5 ml ABTGC medium and incubator at 37° C. with shaking. Compound G1 was supplemented into the PAO1 cultures at final concentrations of 0, 50, 100 μM respectively. After 2 h incubation, 0.8 mL culture supernatants were sampled by centrifugation (18000 g, 4 min) and filtration through 0.2 micron filters. Elastase activity of P. aeruginosa culture supernatants was measured by using The EnzChekElastase Assay Kit (Invitrogen), which uses BODIPY-FL-labeled DQ elastin conjugate as the substrate of elastase. The BODIPY-FL-labeled DQ elastins conjugate when cleaved by elastase enzyme, yields highly fluorescent fragments. Fluorescence was recorded every 6 min for 180 min by using a Tecan Infinite 200 Pro plate reader (excitation at 490 nm, emission at 520 nm).

Where two headings read alike, the source gives them in different places.

T1 sequence (P25084 whole entry): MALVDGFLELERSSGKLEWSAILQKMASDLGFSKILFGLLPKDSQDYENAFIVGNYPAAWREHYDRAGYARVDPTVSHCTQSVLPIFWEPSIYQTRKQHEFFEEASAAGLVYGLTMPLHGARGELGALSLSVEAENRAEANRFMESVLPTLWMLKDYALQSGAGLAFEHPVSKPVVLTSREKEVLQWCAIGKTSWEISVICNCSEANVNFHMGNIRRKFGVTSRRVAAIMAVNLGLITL

Broadly, the IC50 is the point on the concentration scale where inhibition reaches its midpoint. By inhibition is commonly meant the percentage by which the read-out fell short of the control. For the compound `N=c1[nH]c(=O)c2nn[nH]c2[nH]1` [Compound G1, 5-imino-4,6-dihydro-3H-1,2,3-triazolo[5,4-d]pyrimidin-7-one], the “IC50 of lasB-gfp expression, range in words” value in assay [1] (P. aeruginosa PAO1 lasB-gfp(ASV)) is “high nanomolar range”. In addition, in assay [1] (P. aeruginosa lasB-gfp(ASV) strain, OD600), the “effect on cell growth” value is recorded as “without affecting cell growth”. Also, the “inhibition of LasR-controlled GFP expression” value in assay [1] (P. aeruginosa lasB-gfp(ASV) strain, 0.78125-50 μM) is “inhibit LasR-controlled GFP expression in a dose-dependent manner”. Also, the IC50 in assay [1] (Pseudomonas aeruginosa, PAO1, read-out: IC50 of lasB-gfp expression) was found to be 640 nM. The “relative fluorescence (GFP/OD600)” value came out at 711.5 on LasR (320 nM OdDHL with 100 μM G1); 438.1 on LasR (100 μM G1 and no OdDHL). For the same compound, the “specific inhibition of LasR activity in the competition assay” value at LasR (E. coli lasB-gfp(ASV), with OdDHL) is “specifically inhibit LasR activity”. Further, the “concentration sufficient in inhibiting OdDHL-LasR induction of gfp expression” value on LasR (in the presence of 320 nM OdDHL) was determined as 1.56 µM. Besides, the inhibition at 100 µM came out at 30.2% on LasR (read-out: inhibition as compared to the control without G1, 100 μM G1, in the absence of OdDHL) and 46.9% at LasR (read-out: inhibition as compared to the control without G1, 100 μM G1, in the presence of 320 nM OdDHL). The “extracellular DNA (eDNA) in biofilms” value in assay [2] was “less eDNA was observed”. The “elastase production (elastase activity of culture supernatants)” value in assay [3] is given as “almost abolish elastase production”.
